Reference: US5932709A (University of Michigan, priority 1997, dated 1999)
“Also recorded” adds a separate entry of the source.

Tests used:
[1] = molecular target: T1, human placental topoisomerase I (Homo sapiens, UniProt P11387); assay: Inhibition of topoisomerase I catalytic activity (relaxation of supercoiled SV40 DNA); format: biochemical; settings: for relaxation of supercoiled DNA: FIG. 18 / FIG. 19, in words; for topoisomerase I inhibition: highest concentration tested (100 μg/mL), in words; for topoisomerase I inhibitory activity: comparison in words, vs camptothecin
T1 construct: purchased TopoGen; host or cells: human placenta
T1 sequence (P11387 1-765): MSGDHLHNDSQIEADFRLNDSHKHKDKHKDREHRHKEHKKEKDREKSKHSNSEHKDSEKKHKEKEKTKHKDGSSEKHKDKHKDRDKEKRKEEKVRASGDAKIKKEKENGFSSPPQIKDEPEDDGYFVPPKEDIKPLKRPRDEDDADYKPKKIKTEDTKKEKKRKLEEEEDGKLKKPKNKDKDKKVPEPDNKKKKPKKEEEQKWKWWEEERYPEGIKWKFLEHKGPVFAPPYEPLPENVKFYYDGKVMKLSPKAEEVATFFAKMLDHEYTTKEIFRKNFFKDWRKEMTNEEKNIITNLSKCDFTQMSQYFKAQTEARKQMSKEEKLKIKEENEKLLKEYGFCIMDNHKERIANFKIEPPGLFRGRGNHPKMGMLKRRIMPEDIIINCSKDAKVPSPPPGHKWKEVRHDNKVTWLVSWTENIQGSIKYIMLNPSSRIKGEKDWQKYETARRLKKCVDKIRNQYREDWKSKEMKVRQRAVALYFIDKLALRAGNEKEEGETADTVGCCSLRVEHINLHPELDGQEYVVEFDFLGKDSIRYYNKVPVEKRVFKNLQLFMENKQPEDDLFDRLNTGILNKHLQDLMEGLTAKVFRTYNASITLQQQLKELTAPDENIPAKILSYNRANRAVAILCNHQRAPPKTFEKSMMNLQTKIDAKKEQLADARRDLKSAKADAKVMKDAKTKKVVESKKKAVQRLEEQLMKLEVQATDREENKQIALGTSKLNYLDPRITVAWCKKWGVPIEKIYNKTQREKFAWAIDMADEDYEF
Method: The topoisomerase I catalytic activity was measured by converting the supercoiled SV40 DNA (Form I) to the relaxed form (Form Io). All reactions were performed in 20 μL reaction buffer (Tris-HCl, 10 mM, pH 7.5; EDTA, 1 mM; NaCl, 100 mM) with 0.25 μg SV40 DNA, 0.5 unit of human placental topoisomerase I (TopoGen) and graded concentrations of the analog tested. The reaction mixtures were incubated at 37° C. for 30 minutes. […] Ten μL of the reaction mixture was loaded onto a 1% agarose gel prepared in TAE buffer containing 2 μg/mL chloroquine; and the electrophoresis was performed at 82 volt for 4.5 hr in the TAE buffer containing 2 μg/mL chloroquine. […] The gels were then stained with 0.5 μg/mL ethidium bromide solution for 30 min or longer (if chloroquine is present during the electrophoresis step), and destained with 5 changes of deionized water. […] The DNA bands (image) on the negative were densitometrically scanned with a Molecular Dynamic Personal Densitometer. The percent inhibition of Toposiomerase I activity is calculated based on the following equation:
% Inhibition=(FSC(E+D) -FSC(E))/(FSC(C)
where FSC(E+D) represents fraction of supercoiled DNA in the presence of enzyme and drug; FSC(E) represents fraction of supercoiled DNA in the presence of enzyme alone; FSC(C) represents fraction of supercoiled DNA in the untreated SV40 DNA; the IC50 value was estimated using the same four-parameter logistic equation described in the in vitro growth inhibition studies.

murine P388 leukemia = assay: Murine P388 leukemia model in vivo; parameters: species or system mouse (B6D2F1); settings: for Survivors: 30-day; for 30-day survivors (cures): 100 mg/kg; for toxic deaths: at the high dose; for efficacy vs P388 leukemia: i.p. five day schedule
Method: For the B16 melanoma model, the following procedure was used. B6D2F1 mice receive i.p. inocula of B16 murine melanoma brei prepared from B16 tumors growing s.c. in mice (day 0). […] If dosing information for agents is not available, the maximum tolerated dose (MTD) is determined in initial dose finding experiments in non-tumored mice.
The mean survival times of all groups are calculated, and results are expressed as mean survival of treated mice/mean survival of control mice (T/C)×100%. A T/C value of 150 means that the mice in the treated group lived 50% longer than those of the control group; this is sometimes referred to as the increase in life span or ILS value.
For the P388 leukemia model, the procedure followed is exactly the same as the aforementioned B16 model. The tumor inoculum is prepared by removing ascited fluid containing P388 cells from tumored B6D2F1 mice, centrifuging the cells, and then resuspending the leukemia cells in saline. Mice receive 1×10^6 P388 cells i.p. on day 0.

tumor cells = assay: MTT growth inhibition across tumor cell lines (P388, P388/CPT, B16, HT-29, MCF-7M); format: cell-based; settings: for growth inhibitory activity: comparison in words
Method: [See "Rapid Colorimetric Assay For Cellular Growth And Survival: Application To Proliferation And Cytotoxicity Assays," J. Immun. Meth. 65:55 (1983)]. The assay utilizes a tetrazolium salt to quantitatively measure mammalian cell survival and proliferation by colorimetric methods. In particular, MTT, a pale yellow compound with minimal absorbance, is incubated with cancerous cells in addition to (or in the absence of) a particular camptothecin analog. Living cells with active mitochondrial enzymes metabolize the MTT into a dark blue/purple formazan product with high absorbance. The exact procedure used to test the camptothecin analogs of the present invention is described below.
Exponentially growing cells (1-2×10^3 cells, unless specified otherwise) in 0.1 mL medium were seeded on day 0 in a 96-well microtiter plate. On day 1, 0.1 mL aliquots of medium containing graded concentrations of test analogs were added to the cell plates. After incubation at 37° C. in a humidified incubator for 3 days (P388, P388/CPT, B16) or 6 days (HT-29, MCF-7M), the plates were centrifuged briefly and 100 μL of the growth medium was removed. Cell cultures were incubated with 50 μL of 3-(4,5-dimethylthiazol-2-yl)-2,5-diphenyl-tetrazolium bromide [MTT, 1 mg/mL in Dulbecco's phosphate buffered saline (PBS)] for 4 hr at 37° C. The resulting purple formazan precipitate was solubilized with 200 μL of 0.04 N HCl in isopropyl alcohol. Absorbance was monitored in a BioRad Model 3550 Microplate Reader at a test wavelength of 570 nm and a reference wavelength of 630 nm. The absorbance is transferred to a PC 486 computer. The IC50 values were determined by a computer program (EZ-ED50) that fits all of the data to the following four-parameter logistic equation: […]

[2] = lower dose of 100 mg/kg (so in the source)

Compound | IC50 [1] [µM] | relaxation of supercoiled DNA [1] | topoisomerase I inhibition [1] | 30-day survivors (cures) (murine P388 leukemia) | T/C (mean survival treated/control) (murine P388 leukemia; 100 mg/kg i.p. daily×5) [%] | Tox Deaths (murine P388 leukemia; 100 mg/kg i.p. daily×5) | ΔWeight (%) (murine P388 leukemia; 100 mg/kg i.p. daily×5) | Survivors (murine P388 leukemia; 100 mg/kg i.p. daily×5) | toxic deaths (murine P388 leukemia) | weight loss (murine P388 leukemia; at the high dose (MTD)) | efficacy vs P388 leukemia (murine P388 leukemia; in words) | topoisomerase I inhibitory activity [1] | T/C (mean survival treated/control) (murine P388 leukemia; 20 mg/kg i.p. daily×5) [%] | Tox Deaths (murine P388 leukemia; 20 mg/kg i.p. daily×5) | ΔWeight (%) (murine P388 leukemia; 20 mg/kg i.p. daily×5) | Survivors (murine P388 leukemia; 20 mg/kg i.p. daily×5) | growth inhibitory activity (tumor cells) | also measured
CC[C@@]1(O)C(=O)OCc2c1cc1n(c2=O)Cc2c-1nc1ccccc1c2CO[C@@H]1C=C[C@H](O[C@H]2O[C@H](CO)[C@@H](O)[C@H](O)[C@H]2O)[C@@H](CO)O1 [HAR6, 7-[4-O-(α-D-glucopyranosyl)-2,3-dideoxy-α-D-erythro-hex-2-enopyranosyl]-oxymethylcamptothecin] | > 150 | inhibition of relaxation of supercoiled DNA | moderately inhibited topoisomerase I activity | three | 320 | 0/10 | -12.2% | 3/10 | no toxic deaths occurred | 12%-16 | high, curative efficacy |  |  |  |  |  |  | T/C (mean survival treated/control) (murine P388 leukemia; 50 mg/kg i.p. daily×5): 225%; Tox Deaths (murine P388 leukemia; 50 mg/kg i.p. daily×5): 0/10; ΔWeight (%) (murine P388 leukemia; 50 mg/kg i.p. daily×5): -3.5%; Survivors (murine P388 leukemia; 50 mg/kg i.p. daily×5): 1/10; T/C (murine P388 leukemia; [2]): 225%; cures (murine P388 leukemia; [2]): one
CC[C@@]1(O)C(=O)OCc2c1cc1n(c2=O)Cc2c-1nc1ccccc1c2CO[C@@H]1C=C[C@H](OC(C)=O)[C@@H](COC(C)=O)O1 [HAR4, 7-[4,6-di-O-acetyl-2,3-dideoxy-α-D-erythro-hex-2-enopyranosyl]oxymethylcamptothecin] | 42.3 | inhibition of relaxation of supercoiled DNA |  |  |  |  |  |  | no toxic deaths occurred | 12%-16 | high, curative efficacy; also recorded: excellent activity vs. P388 | quite similar to those of camptothecin | 206 | 0/10 | -14.0 | 2/10 | quite similar to those of camptothecin | cures (murine P388 leukemia; 10 mg/kg): two; T/C (mean survival treated/control) (murine P388 leukemia; 10 mg/kg i.p. daily×5): 201%; Tox Deaths (murine P388 leukemia; 10 mg/kg i.p. daily×5): 0/10; ΔWeight (%) (murine P388 leukemia; 10 mg/kg i.p. daily×5): -0.6%; Survivors (murine P388 leukemia; 10 mg/kg i.p. daily×5): 2/10; cures (murine P388 leukemia; 20 mg/kg): two; potency in inhibiting growth of tumor cells (tumor cells; more potent than HAR7): 2-3 fold
CC[C@@]1(O)C(=O)OCc2c1cc1n(c2=O)Cc2c-1nc1ccccc1c2CO[C@@H]1C=C[C@H](O)[C@@H](CO)O1 [HAR7, 7-[2,3-dideoxy-α-D-erythro-hex-2-enopyranosyl]-oxymethylcamptothecin] | 3.95 | inhibition of relaxation of supercoiled DNA |  |  |  |  |  |  | no toxic deaths occurred | 12%-16 | high, curative efficacy; also recorded: excellent activity vs. P388 | quite similar to those of camptothecin | 192 | 0/10 | -1.7 | 0/10 | quite similar to those of camptothecin | topoisomerase I inhibition relative to HAR4 ([1]; more inhibitory than HAR4): 10 times; T/C (mean survival treated/control) (murine P388 leukemia; 40 mg/kg i.p. daily×5): 223%; Tox Deaths (murine P388 leukemia; 40 mg/kg i.p. daily×5): 0/10; ΔWeight (%) (murine P388 leukemia; 40 mg/kg i.p. daily×5): -16.0%; Survivors (murine P388 leukemia; 40 mg/kg i.p. daily×5): 3/10; 30-day survivors (murine P388 leukemia; 40 mg/kg, high dose): three
CC[C@@]1(O)C(=O)OCc2c1cc1n(c2=O)Cc2c-1nc1ccccc1c2CO[C@@H]1C=C[C@H](O[C@H]2O[C@H](COC(C)=O)[C@@H](OC(C)=O)[C@H](OC(C)=O)[C@H]2OC(C)=O)[C@@H](COC(C)=O)O1 [HAR5, 7-[6-O-acetyl-4-O-(2,3,4,6-tetra-O-acetyl-α-D-glucopyranosyl)-2,3-dideoxy-α-D-erythro-hex-2-enopyranosyl]oxymethylcamptothecin] | > 114 | inhibition of relaxation of supercoiled DNA | moderately inhibited topoisomerase I activity | one | 141 | 0/10 | +0.7% | 1/10 |  |  | less efficacious compared to the other three compounds |  |  |  |  |  | more cytotoxic than camptothecin hydroxyl maltal (HAR6) | T/C (mean survival treated/control) (murine P388 leukemia; 200 mg/kg i.p. daily×5): 161%; Tox Deaths (murine P388 leukemia; 200 mg/kg i.p. daily×5): 0/10; ΔWeight (%) (murine P388 leukemia; 200 mg/kg i.p. daily×5): -2.0%; Survivors (murine P388 leukemia; 200 mg/kg i.p. daily×5): 0/10; weight loss (murine P388 leukemia; at its solubility-limiting dose, in words): only insignificant weight loss
